Experimental data taken from patent US11066634B2, “Culture device and methods for enumerating mold colonies” (3M INNOVATIVE PROPERTIES COMPANY, priority 2013, dated 2021).
Read-outs that look alike come from different tables or passages of the source.

Legend:
Aspergillus niger [1] = assay: Aspergillus niger on PYM plates with EGTA in the inoculum (Example 13); type: cell-based; settings: for Reduction in colony area / Colony area: 48 hours; for 48 hour count / 72 hour count: total for three plates
Method: A 4-millimolar solution of ethylene glycol tetraacetic acid (EGTA) was prepared by dissolving 15.2 milligrams of EGTA in 10 milliliters of Butterfield's buffer. Serial two-fold dilutions were prepared to provide solutions containing 2 millimolar and 1 millimolar EGTA, respectively. “EGTA”, as used in the Examples, refers to ethylene glycol-bis(2-aminoethylether)-N,N,N′,N′-tetraacetic acid (67-42-5) obtained from Sigma-Aldrich (St. Louis, Mo.). A suspension of Aspergillus niger was diluted and added to the solutions as described in Example 12 to provide final cell concentrations of approximately 5 cfu per ml. Three replicate devices were prepared by inoculating 1 milliliter of the mold suspensions to PYM plates according to the manufacturer's instructions. Images of the plates were obtained after 48 hours and 72 hours of incubation, respectively. […] The average colony size after 48 hours of incubation was determined by imaging the plates and analyzing the images as described above.

C. guillermondi = settings: for Colony area (mean ± standard deviation): 91 hours
Method: (§1) Thin film culture devices were prepared as described above. Three yeast strains were serially diluted from a frozen stock to provide a final concentration of approximately 100 CFU per ml. The thin film culture devices were inoculated, incubated for 91 hours, imaged, and analyzed as described above.

C. glabrata = settings: for Colony area (mean ± standard deviation): 91 hours
Method: as §1

[2] = tested on: mold species shown in Table 7; settings: for some species; EDTA concentrations higher than 1 wt % of the dry powder coatings
Method: The mold species shown in Table 7 were serially diluted, inoculated, incubated, imaged, and analyzed as described for the A. niger cultures.

[3] = tested on: Aspergillus niger (ATCC #16484); settings: for Colony Size Reduction: 1 mM vs 0 mM EDTA
Method: Fat free skim milk was purchased from a local grocery store. 3.7 milligrams of disodium EDTA dihydrate was added to 10 milliliters of the fat-free skim milk to provide a final concentration of 1 millimolar EDTA. A suspension of Aspergillus niger (ATCC #16484) was diluted in Butterfields buffer to a concentration of approximately 500 colony forming units per milliliter. 100 microliters of the diluted suspension was added to the milk sample. After briefly vortexing, 1 milliliter of the milk sample containing the mold was used to inoculate PYM plates according to the manufacturer's instructions. The PYM plates were incubated at 30° C. for 48 hours, followed by imaging and colony size analysis as described above. A control sample (without milk) was also prepared in Butterfield's buffer.

Aspergillus niger [4] = tested on: Aspergillus niger
Method: A diluted suspension of Aspergillus niger was prepared as described in example 1. A 1 millimolar solution of EDTA was prepared by dissolving 3.7 milligrams of EDTA in 10 milliliters of Butterfield's buffer. The Aspergillus niger diluted suspension was added to the EDTA/Butterfield's to provide a cell concentration of approximately 5 cfu per milliliter. Five replicate devices were prepared by adding one milliliter of the inoculum to PYM plates according to the manufacturer's instructions. A set of control plates was prepared from a 5 cfu per ml solution of Aspergillus niger containing no EDTA.

R. mucilaginosa = settings: for Colony area (mean ± standard deviation): 91 hours
Method: as §1

[5] = EDTA at concentrations below 1%
[6] = EDTA concentrations higher than 1%

## O=C(O)CN(CCOCCOCCN(CC(=O)O)CC(=O)O)CC(=O)O [EGTA, ethylene glycol-bis(2-aminoethylether)-N,N,N′,N′-tetraacetic acid]
Aspergillus niger [1]; 1 mM EGTA vs 0 mM control
  Reduction in colony area: −9%
Aspergillus niger [1]; 1 mM EGTA
  Colony area: 24107 pixels
  48 hour count: 12
  72 hour count: 12
Aspergillus niger [1]; 2 mM EGTA vs 0 mM control
  Reduction in colony area: −43%
Aspergillus niger [1]; 2 mM EGTA
  Colony area: 15177 pixels
  48 hour count: 14
  72 hour count: 14
Aspergillus niger [1]; 4 mM EGTA vs 0 mM control
  Reduction in colony area: −78%
Aspergillus niger [1]; 4 mM EGTA
  Colony area: 5772 pixels
  48 hour count: 11
  72 hour count: 11

## disodium ethylenediamine tetraacetic acid dihydrate [EDTA]
C. guillermondi; 0.5% EDTA
  Colony area (mean ± standard deviation): 490 ± 129 pixels
C. guillermondi; 1% EDTA
  Colony area (mean ± standard deviation): 201 ± 119 pixels
C. guillermondi; 2.3% EDTA
  Colony area (mean ± standard deviation): 381 ± 140 pixels
C. guillermondi; 4.2% EDTA
  Colony area (mean ± standard deviation): 162 ± 92 pixels
C. guillermondi; [5]
  effect on colony size: not affected
C. glabrata; 0.5% EDTA
  Colony area (mean ± standard deviation): 487 ± 300 pixels
C. glabrata; 1% EDTA
  Colony area (mean ± standard deviation): 308 ± 201 pixels
C. glabrata; 2.3% EDTA
  Colony area (mean ± standard deviation): 0 ± 0 pixels
C. glabrata; 4.2% EDTA
  Colony area (mean ± standard deviation): 0 ± 0 pixels
C. glabrata; [5]
  effect on colony size: not affected
C. glabrata; [6]
  detection of colonies: not detected
[2]
  delay in the appearance of visible colonies: a delay in the appearance of visible colonies was observed
[3]; Buffer Control (Butterfield's buffer, without milk), 48 hours
  Colony Area (1 mM EDTA): 3276
[3]; Buffer Control, 48 hours
  Colony Size Reduction: −91%
[3]; Skim Milk sample, 30° C. for 48 hours
  Colony Area (1 mM EDTA): 3789
[3]; Skim Milk sample, 48 hours
  Colony Size Reduction: −86%
Aspergillus niger [4]; 1 mM EDTA in inoculum, 48 hours
  Colony area: 1492 pixels
Aspergillus niger [4]; 1 mM EDTA in inoculum, 48 hr
  CFUs (48 hr): 15
Aspergillus niger [4]; 1 mM EDTA in inoculum, 72 hr
  CFUs (72 hr): 16
Aspergillus niger [4]; 1 mM EDTA, after 48 hours of incubation
  average colony diameter smaller than the control plates: approximately 20 fold
R. mucilaginosa; 0.5% EDTA
  Colony area (mean ± standard deviation): 251 ± 95 pixels
R. mucilaginosa; 1% EDTA
  Colony area (mean ± standard deviation): 148 ± 76 pixels
R. mucilaginosa; 2.3% EDTA
  Colony area (mean ± standard deviation): 0 ± 0 pixels
R. mucilaginosa; 4.2% EDTA
  Colony area (mean ± standard deviation): 0 ± 0 pixels
R. mucilaginosa; [5]
  effect on colony size: not affected
R. mucilaginosa; [6]
  detection of colonies: not detected
